Molecular target: T1, Bcl-2 protein (Recombinant Human Bcl-2 Protein) (Homo sapiens, UniProt P10415)
T1 construct: purchased Novus NBP2-34889
Experiment: Binding evaluation of mixture library compounds to Bcl-2 using AS-MS (affinity selection mass spectrometry)
Details: AS-MS on the mixture of 1200 library compounds, ASMS Ratio(%)=(A−C)/B×100; for ASMS ratio (%) n = 1: replicate n = 1; for ASMS ratio (%) n = 2: replicate n = 2
Outline: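 ASMS Ratio (%) was calculated as (A−C)/B×100, where A is the protein sample after SEC, B the protein-free sample without SEC and C the protein-free sample after SEC. Each compound was at […] in a 1200-member pool with 20 μM Bcl-2, incubated 1 h at 23° C.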

T1 sequence (P10415 whole entry): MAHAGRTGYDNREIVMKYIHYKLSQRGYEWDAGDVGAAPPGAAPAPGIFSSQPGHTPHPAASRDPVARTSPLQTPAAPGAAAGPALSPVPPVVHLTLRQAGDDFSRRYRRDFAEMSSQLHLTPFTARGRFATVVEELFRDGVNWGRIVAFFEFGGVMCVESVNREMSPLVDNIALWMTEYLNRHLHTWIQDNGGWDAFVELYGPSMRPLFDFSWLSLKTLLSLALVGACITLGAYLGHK

SMILES	ASMS ratio (%) n = 1 [%]	ASMS ratio (%) n = 2 [%]
CCOc1cncc(-c2csc(C(=O)N3CCN(c4ccc(C(=O)Nc5ccc(OC)cc5)cc4)CC3)c2)c1 [B1O024-01, 4-[4-[4-(5-Ethoxypyridin-3-yl)thiophene-2-carbonyl]piperazin-1-yl]-N-(4-methoxyphenyl)benzamide]	3.6	2.3
CCOc1cccc(-c2ccc(C(=O)N3CCN(c4ccc(C(=O)Nc5ccc(OC)cc5)cc4)CC3)cc2C)c1 [B1O025-01, 4-[4-[4-(3-Ethoxyphenyl)-3-methylbenzoyl]piperazin-1-yl]-N-(4-methoxyphenyl)benzamide]	−0.4	−4.5
CCOc1cncc(-c2ccc(C(=O)N3CCN(c4ccc(C(=O)Nc5ccc(OC)cc5)cc4)CC3)cc2C)c1 [B1O026-01, 4-[4-[4-(5-Ethoxypyridin-3-yl)-3-methylbenzoyl]piperazin-1-yl]-N-(4-methoxyphenyl)benzamide]	1.7	−1.5
CCOc1cccc(-c2ccc(C(=O)N3CCN(c4ccc(C(=O)Nc5ccc(OC)cc5)cc4)CC3)cc2F)c1 [B1O027-01, 4-[4-[4-(3-Ethoxyphenyl)-3-fluorobenzoyl]piperazin-1-yl]-N-(4-methoxyphenyl)benzamide]	3.8	2.1
CCOc1cncc(-c2ccc(C(=O)N3CCN(c4ccc(C(=O)Nc5ccc(OC)cc5)cc4)CC3)cc2F)c1 [B1O028-01, 4-[4-[4-(5-Ethoxypyridin-3-yl)-3-fluorobenzoyl]piperazin-1-yl]-N-(4-methoxyphenyl)benzamide]	4.9	0.4
CCOc1cccc(C#Cc2ccccc2C(=O)N2CCN(c3ccc(C(=O)Nc4ccc(OC)cc4)cc3)CC2)c1 [B1O029-01, 4-[4-[2-[2-(3-Ethoxyphenyl)ethynyl]benzoyl]piperazin-1-yl]-N-(4-methoxyphenyl)benzamide]	0.0	0.0
CCOc1cncc(C#Cc2ccccc2C(=O)N2CCN(c3ccc(C(=O)Nc4ccc(OC)cc4)cc3)CC2)c1 [B1O030-01, 4-[4-[2-[2-(5-Ethoxypyridin-3-yl)ethynyl]benzoyl]piperazin-1-yl]-N-(4-methoxyphenyl)benzamide]	1.8	−2.0
CCOc1cccc(C#Cc2cncc(C(=O)N3CCN(c4ccc(C(=O)Nc5ccc(OC)cc5)cc4)CC3)c2)c1 [B1O031-01, 4-[4-[5-[2-(3-Ethoxyphenyl)ethynyl]pyridine-3-carbonyl]piperazin-1-yl]-N-(4-methoxyphenyl)benzamide]	−1.3	−4.1
CCOc1cncc(C#Cc2cncc(C(=O)N3CCN(c4ccc(C(=O)Nc5ccc(OC)cc5)cc4)CC3)c2)c1 [B1O032-01, 4-[4-[5-[2-(5-Ethoxypyridin-3-yl)ethynyl]pyridine-3-carbonyl]piperazin-1-yl]-N-(4-methoxyphenyl)benzamide]	4.5	0.9
CCOc1cccc(-c2ccccc2CCC(=O)N2CCN(c3ccc(C(=O)Nc4ccc(OC)cc4)cc3)CC2)c1 [B1O033-01, 4-[4-[3-[2-(3-Ethoxyphenyl)phenyl]propanoyl]piperazin-1-yl]-N-(4-methoxyphenyl)benzamide]	1.9	4.2
CCOc1cncc(-c2ccccc2CCC(=O)N2CCN(c3ccc(C(=O)Nc4ccc(OC)cc4)cc3)CC2)c1 [B1O034-01, 4-[4-[3-[2-(5-Ethoxypyridin-3-yl)phenyl]propanoyl]piperazin-1-yl]-N-(4-methoxyphenyl)benzamide]	0.1	0.2
CCOc1cccc(-c2ccc(C(=O)N3CCN(c4ccc(C(=O)Nc5ccc(OC)cc5)cc4)CC3)c3ccccc23)c1 [B1O035-01, 4-[4-[4-(3-Ethoxyphenyl)naphthalene-1-carbonyl]piperazin-1-yl]-N-(4-methoxyphenyl)benzamide]	4.3	−3.7
CCOc1cncc(-c2ccc(C(=O)N3CCN(c4ccc(C(=O)Nc5ccc(OC)cc5)cc4)CC3)c3ccccc23)c1 [B1O036-01, 4-[4-[4-(5-Ethoxypyridin-3-yl)naphthalene-1-carbonyl]piperazin-1-yl]-N-(4-methoxyphenyl)benzamide]	4.8	0.9
CCOc1cccc(-c2cc(C(=O)N3CCN(c4ccc(C(=O)Nc5ccc(OC)cc5)cc4)CC3)cc(C(C)(C)C)c2)c1 [B1O037-01, 4-[4-[3-tert-Butyl-5-(3-ethoxyphenyl)benzoyl]piperazin-1-yl]-N-(4-methoxyphenyl)benzamide]	4.7	−1.7
CCOc1cncc(-c2cc(C(=O)N3CCN(c4ccc(C(=O)Nc5ccc(OC)cc5)cc4)CC3)cc(C(C)(C)C)c2)c1 [B1O038-01, 4-[4-[3-tert-Butyl-5-(5-ethoxypyridin-3-yl)benzoyl]piperazin-1-yl]-N-(4-methoxyphenyl)benzamide]	2.8	−0.7
CCOc1cccc(-c2cc(C(=O)N3CCN(c4ccc(C(=O)Nc5ccc(OC)cc5)cc4)CC3)cc(C(F)(F)F)c2)c1 [B1O039-01, 4-[4-[3-(3-Ethoxyphenyl)-5-(trifluoromethyl)benzoyl]piperazin-1-yl]-N-(4-methoxyphenyl)benzamide]	5.1	0.2
CCOc1cncc(-c2cc(C(=O)N3CCN(c4ccc(C(=O)Nc5ccc(OC)cc5)cc4)CC3)cc(C(F)(F)F)c2)c1 [B1O040-01, 4-[4-[3-(5-Ethoxypyridin-3-yl)-5-(trifluoromethyl)benzoyl]piperazin-1-yl]-N-(4-methoxyphenyl)benzamide]	1.8	0.3
CCOc1cccc(C#Cc2cc(C(=O)N3CCN(c4ccc(C(=O)Nc5ccc(OC)cc5)cc4)CC3)cc(C(F)(F)F)c2)c1 [B1O041-01, 4-[4-[3-[2-(3-Ethoxyphenyl)ethynyl]-5-(trifluoromethyl)benzoyl]piperazin-1-yl]-N-(4-methoxyphenyl)benzamide]	10.4	−2.8
CCOc1cncc(C#Cc2cc(C(=O)N3CCN(c4ccc(C(=O)Nc5ccc(OC)cc5)cc4)CC3)cc(C(F)(F)F)c2)c1 [B1O042-01, 4-[4-[3-[2-(5-Ethoxypyridin-3-yl)ethynyl]-5-(trifluoromethyl)benzoyl]piperazin-1-yl]-N-(4-methoxyphenyl)benzamide]	2.8	2.1
CCOc1cccc(-c2cnn(-c3cc(C(=O)N4CCN(c5ccc(C(=O)Nc6ccc(OC)cc6)cc5)CC4)cc(C(F)(F)F)c3)c2)c1 [B1O043-01, 4-[4-[3-[4-(3-Ethoxyphenyl)pyrazol-1-yl]-5-(trifluoromethyl)benzoyl]piperazin-1-yl]-N-(4-methoxyphenyl)benzamide]	2.2	−5.0
CCOc1cncc(-c2cnn(-c3cc(C(=O)N4CCN(c5ccc(C(=O)Nc6ccc(OC)cc6)cc5)CC4)cc(C(F)(F)F)c3)c2)c1 [B1O044-01, 4-[4-[3-[4-(5-Ethoxypyridin-3-yl)pyrazol-1-yl]-5-(trifluoromethyl)benzoyl]piperazin-1-yl]-N-(4-methoxyphenyl)benzamide]	5.8	0.4
CCOc1cccc(-c2ccccc2CN2CCN(c3ccc(C(=O)Nc4ccc(OC)cc4)cc3)CC2)c1 [B1O045-01, 4-[4-[[2-(3-Ethoxyphenyl)phenyl]methyl]piperazin-1-yl]-N-(4-methoxyphenyl)benzamide]	0.0	0.0
CCOc1cncc(-c2ccccc2CN2CCN(c3ccc(C(=O)Nc4ccc(OC)cc4)cc3)CC2)c1 [B1O046-01, 4-[4-[[2-(5-Ethoxypyridin-3-yl)phenyl]methyl]piperazin-1-yl]-N-(4-methoxyphenyl)benzamide]	0.6	1.3
CCOc1cccc(-c2ccc(CN3CCN(c4ccc(C(=O)Nc5ccc(OC)cc5)cc4)CC3)cc2C)c1 [B1O047-01, 4-[4-[[4-(3-Ethoxyphenyl)-3-methylphenyl]methyl]piperazin-1-yl]-N-(4-methoxyphenyl)benzamide]	4.1	1.5
CCOc1cncc(-c2ccc(CN3CCN(c4ccc(C(=O)Nc5ccc(OC)cc5)cc4)CC3)cc2C)c1 [B1O048-01, 4-[4-[[4-(5-Ethoxypyridin-3-yl)-3-methylphenyl]methyl]piperazin-1-yl]-N-(4-methoxyphenyl)benzamide]	−0.3	−1.6
CCOc1cccc(-c2ccc(CN3CCN(c4ccc(C(=O)Nc5ccc(OC)cc5)cc4)CC3)c(CC)c2)c1 [B1O049-01, 4-[4-[[4-(3-Ethoxyphenyl)-2-ethylphenyl]methyl]piperazin-1-yl]-N-(4-methoxyphenyl)benzamide]	6.1	0.0
CCOc1cncc(-c2ccc(CN3CCN(c4ccc(C(=O)Nc5ccc(OC)cc5)cc4)CC3)c(CC)c2)c1 [B1O050-01]	10.3	−5.8
CCOc1cccc(-c2ccc(CN3CCN(c4ccc(C(=O)Nc5ccc(OC)cc5)cc4)CC3)cc2F)c1 [B1O051-01, 4-[4-[[4-(3-Ethoxyphenyl)-3-fluorophenyl]methyl]piperazin-1-yl]-N-(4-methoxyphenyl)benzamide]	3.9	−1.9
CCOc1cncc(-c2ccc(CN3CCN(c4ccc(C(=O)Nc5ccc(OC)cc5)cc4)CC3)cc2F)c1 [B1O052-01, 4-[4-[[4-(5-Ethoxypyridin-3-yl)-3-fluorophenyl]methyl]piperazin-1-yl]-N-(4-methoxyphenyl)benzamide]	1.6	0.4

Reference: patent publication US20240132431A1, “METHOD FOR ALKYLATING ACIDIC FUNCTIONAL GROUP” (Chugai Seiyaku Kabushiki Kaisha, priority 2021, published 2024)
